Columns and labels:
[1] = Release of cyclodextrin and drug from paper disk dosage forms in vivo (kept under the tongue, residue extracted); conditions: for Progesterone left in disk, % of the originally present progesterone: progesterone:HPBCD paper disk, non-released disk = 100%
Procedure: Paper disks of 2 cm diameter containing only HPBCD were kept under the tongue for 3 to 4 minutes and dried after retrieval. The disks were then extracted by water (50 ml) overnight and soluble carbohydrates in the extracts measured using anthrone reagent (Methods in Carbohydrate Chemistry, Volume 1, page 523, wavelength used 620 nm). HPBCD is reactive toward this reagent. The control paper disk with HPBCD, but not released under the tongue, registered 100 units (arbitrary scale); the empty paper disk registered 1.8 units; disks loaded with HPBCD and released for 3 to 4 minutes under the tongue, 1.6 units.
Paper disks carrying progesterone:HPBCD combination, prepared as in Example 2 were kept under the tongue and, after retrieval, dried and extracted by water (50 ml) overnight. Progesterone in the extracts was measured by spectrophotometry using methods and precautions as in Example 2. When progesterone extracted from the original disks (i.e., not released under tongue) is taken as 100%, disks which were released for 5 minutes under the tongue yielded 3.8% of the originally present progesterone, and disks released for 10 minutes, 3.2%. Several minutes under the tongue thus releases nearly all drug into the oral cavity.

[2] = Release of drugs from paper disk dosage forms in vitro (continuous elution by water, spectrophotometry); type: physicochemical; conditions: eluted disks dried and eluted by methanol (50 ml) overnight
[3] = as above; type: physicochemical; conditions: first milliliters of eluent
Procedure: To prepare the dosage form, cyclodextrin was dissolved in water (50% solutions for HPBCD, 20% for gamma-cyclodextrin and sulfopropyl beta-cyclodextrin), or aqueous ethanol for HPBCD (50% solution). This solution was saturated with drug by intensive stirring for two hours. The suspension was then filtered and then spotted on paper or filtration cloth and air dried.
Paper disks of 2 cm diameter and carrying drug: cyclodextrin inclusion complexes in the amounts specified in Table 1 below were continuously eluted by water and the amount of drug eluted was measured by spectrophotometry. For progesterone, a wavelength of 240 nm was used. Data had to be corrected since paper contains a minor component which elutes rapidly and absorbs at this wavelength. Prewashing of paper removes this complication. Amphotericin B content was analyzed using wavelength 410 nm and data previously published (M. Kajtar et al., Biopolymers, 28, 1585-1596, 1989).

SMILES	Time for release of HPBCD into mouth ([1]; paper disk under the tongue)	Additional drug release from eluted, dried disks by methanol [2]	Completeness of release of drug by water from cyclodextrin paper disks [3]	Progesterone left in disk, % of the originally present progesterone ([1]; released 5 minutes under the tongue)	Progesterone left in disk, % of the originally present progesterone ([1]; released 10 minutes under the tongue)
CC(O)COC[C@H]1O[C@@H]2O[C@H]3[C@H](O)[C@@H](O)[C@@H](O[C@H]4[C@H](O)[C@@H](O)[C@@H](O[C@H]5[C@H](O)[C@@H](O)[C@@H](O[C@H]6[C@H](O)[C@@H](O)[C@@H](O[C@H]7[C@H](O)[C@@H](O)[C@@H](O[C@H]8[C@H](O)[C@@H](O)[C@@H](O[C@H]1[C@H](O)[C@H]2O)O[C@@H]8COCC(C)O)O[C@@H]7COCC(C)O)O[C@@H]6COCC(C)O)O[C@@H]5COCC(C)O)O[C@@H]4COCC(C)O)O[C@@H]3COCC(C)O (stereo partly drawn) [HPBCD, hydroxypropyl beta-cyclodextrin]	completed within a few minutes				
C[C@@H]1[C@H](O)[C@@H](C)/C=C/C=C/C=C/C=C/C=C/C=C/C=C/[C@H](O[C@@H]2O[C@H](C)[C@@H](O)[C@H](N)[C@@H]2O)C[C@@H]2O[C@](O)(C[C@@H](O)C[C@@H](O)[C@H](O)CC[C@@H](O)C[C@@H](O)CC(=O)O[C@H]1C)C[C@H](O)[C@H]2C(=O)O [Amphotericin B]		further drug was release	only partial		
CC(=O)[C@H]1CC[C@H]2[C@@H]3CCC4=CC(=O)CC[C@]4(C)[C@H]3CC[C@]12C [Progesterone]		No additional release was observed	complete	3.8%	3.2%
